One test relates to Bacillus subtilis. Put plainly: In vitro antibacterial activity against Bacillus subtilis ATCC 585969. The test is classed as functional.
The subject of another test is Chlamydia pneumoniae. Put plainly: In vitro antibacterial activity against Chlamydia pneumoniae AR-39. The test is classed as functional.
For test [1], the system named is Escherichia coli. As to the kind of experiment: In vitro antibacterial activity against Escherichia coli ATCC 25922. The test is classed as functional.
The test system of another test is Enterococcus faecalis. Put plainly: In vitro antibacterial activity against Enterococcus faecalis ATCC 29212. The test is classed as functional.
Test [2] concerns Escherichia coli. As to the kind of experiment: In vitro antibacterial activity against isolated Escherichia coli DC2. The test is classed as functional.
The subject of a further test is Enterococcus faecium. Put plainly: In vitro antibacterial activity against Enterococcus faecium vanA E25_1. The test is classed as functional.
Test [3] has as its target T1, Endothelin-converting enzyme 1 (Homo sapiens, UniProt P42892).
T1 sequence (P42892 whole entry): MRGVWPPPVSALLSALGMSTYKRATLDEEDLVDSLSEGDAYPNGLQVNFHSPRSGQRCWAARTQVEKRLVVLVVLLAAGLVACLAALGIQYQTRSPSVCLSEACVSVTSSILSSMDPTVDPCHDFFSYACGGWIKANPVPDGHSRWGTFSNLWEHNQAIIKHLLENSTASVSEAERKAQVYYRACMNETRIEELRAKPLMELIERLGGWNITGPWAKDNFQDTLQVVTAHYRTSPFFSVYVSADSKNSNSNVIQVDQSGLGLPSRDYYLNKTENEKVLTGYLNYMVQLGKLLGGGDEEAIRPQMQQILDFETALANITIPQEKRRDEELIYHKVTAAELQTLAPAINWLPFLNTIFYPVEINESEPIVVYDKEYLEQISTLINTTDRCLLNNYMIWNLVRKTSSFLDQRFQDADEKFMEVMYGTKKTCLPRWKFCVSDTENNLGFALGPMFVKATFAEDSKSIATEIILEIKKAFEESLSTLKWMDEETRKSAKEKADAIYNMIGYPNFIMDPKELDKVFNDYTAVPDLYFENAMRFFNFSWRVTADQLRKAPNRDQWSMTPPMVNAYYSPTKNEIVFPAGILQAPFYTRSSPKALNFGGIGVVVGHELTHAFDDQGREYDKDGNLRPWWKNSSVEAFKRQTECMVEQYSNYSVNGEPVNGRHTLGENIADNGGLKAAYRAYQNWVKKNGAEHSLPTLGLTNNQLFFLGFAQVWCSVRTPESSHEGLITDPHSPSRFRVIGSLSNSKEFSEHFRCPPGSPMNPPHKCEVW
As to the kind of experiment: Inhibitory activity against Endothelin-converting enzyme 1.

The next test concerns Haemophilus influenzae. Put plainly: In vitro antibacterial activity against Haemophilus influenzae 11. The test is classed as functional.
For the next test, the target named is Collagenase 3 (Homo sapiens, UniProt P45452). As to the kind of experiment: Inhibition of Matrix metalloprotease-13.
A further test deals with T2, Interstitial collagenase (Homo sapiens, UniProt P03956).
T2 sequence (P03956 whole entry): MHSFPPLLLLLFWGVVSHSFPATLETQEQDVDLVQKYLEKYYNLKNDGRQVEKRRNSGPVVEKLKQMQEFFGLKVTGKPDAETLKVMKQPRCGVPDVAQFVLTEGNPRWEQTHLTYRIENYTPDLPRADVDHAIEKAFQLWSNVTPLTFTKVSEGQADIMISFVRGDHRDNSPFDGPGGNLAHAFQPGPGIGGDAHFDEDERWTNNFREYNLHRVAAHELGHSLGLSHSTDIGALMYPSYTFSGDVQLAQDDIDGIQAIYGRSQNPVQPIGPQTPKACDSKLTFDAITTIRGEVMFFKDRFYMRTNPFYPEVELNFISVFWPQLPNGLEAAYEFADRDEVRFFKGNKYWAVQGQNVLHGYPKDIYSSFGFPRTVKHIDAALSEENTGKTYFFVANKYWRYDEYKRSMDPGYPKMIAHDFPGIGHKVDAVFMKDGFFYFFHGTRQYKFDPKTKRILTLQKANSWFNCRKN
Put plainly: Inhibition of Matrix metalloprotease-1.

Test [4] deals with Macrophage metalloelastase (Homo sapiens, UniProt P39900). Put plainly: Inhibition of human Matrix metalloprotease-12.
The subject of another test is Moraxella catarrhalis. Put plainly: In vitro antibacterial activity against isolated Moraxella catarrhalis RA21. The test is classed as functional.
Test [5] deals with Mycoplasmoides pneumoniae. Put plainly: In vitro antibacterial activity against Mycoplasma pneumoniae ATCC 29342. The test is classed as functional.
Test [6] has as its target T3, Neprilysin (Rattus norvegicus, UniProt P07861).
T3 sequence (P07861 whole entry): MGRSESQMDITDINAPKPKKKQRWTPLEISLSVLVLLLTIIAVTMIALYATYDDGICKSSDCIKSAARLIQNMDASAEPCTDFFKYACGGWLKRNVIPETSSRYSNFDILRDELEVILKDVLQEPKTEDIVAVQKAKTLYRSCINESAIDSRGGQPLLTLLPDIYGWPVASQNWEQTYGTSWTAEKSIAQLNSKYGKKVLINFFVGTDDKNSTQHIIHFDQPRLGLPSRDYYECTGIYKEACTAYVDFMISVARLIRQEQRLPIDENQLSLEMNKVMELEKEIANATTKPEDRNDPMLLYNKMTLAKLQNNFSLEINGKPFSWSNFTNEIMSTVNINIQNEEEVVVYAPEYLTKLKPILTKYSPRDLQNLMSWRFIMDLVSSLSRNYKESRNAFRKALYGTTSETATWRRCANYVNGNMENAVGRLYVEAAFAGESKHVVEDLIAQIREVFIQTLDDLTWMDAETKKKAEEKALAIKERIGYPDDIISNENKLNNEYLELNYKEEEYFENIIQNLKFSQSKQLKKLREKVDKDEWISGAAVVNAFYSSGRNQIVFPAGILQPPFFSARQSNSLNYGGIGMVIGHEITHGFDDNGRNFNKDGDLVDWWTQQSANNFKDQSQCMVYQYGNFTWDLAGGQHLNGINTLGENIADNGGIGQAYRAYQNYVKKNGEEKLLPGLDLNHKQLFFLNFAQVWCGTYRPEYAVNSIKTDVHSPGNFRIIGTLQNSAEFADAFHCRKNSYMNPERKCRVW
Put plainly: Inhibitory activity against neutral endopeptidase enzyme (NEP).

The nature of test [7]: Inhibitory activity against PDF isolated from Bacillus subtilis.
The subject of a further test is Pseudomonas aeruginosa. As to the kind of experiment: In vitro antibacterial activity against Pseudomonas aeruginosa ATCC 27853. The test is classed as functional.
A further test concerns Staphylococcus aureus. Put plainly: In vitro antibacterial activity against Staphylococcus aureus ATCC 25923. The test is classed as functional.
For test [8], the system named is Streptococcus pneumoniae. Put plainly: In vitro antibacterial activity against Streptococcus pneumoniae ATCC 49619. The test is classed as functional.
In test [9] the test system is Stenotrophomonas maltophilia. As to the kind of experiment: In vitro antibacterial activity against Stenotrophomonas maltophilia 1AC739. The test is classed as functional.
The subject of test [10] is Streptococcus pneumoniae. Put plainly: In vitro antibacterial activity against Streptococcus pneumoniae 1/1 (penicillin resistant). The test is classed as functional.
Test [11] deals with Angiotensin-converting enzyme (Homo sapiens, UniProt P12821).
For test [12], the system named is peptide deformylase (Streptococcus pneumoniae). As to the kind of experiment: Inhibitory activity against PDF isolated from Streptococcus pneumoniae.
Another test has as its target Matrilysin (Homo sapiens, UniProt P09237). As to the kind of experiment: Inhibition of matrilysin, Matrix metalloprotease-7.
Test [13] addresses T3, Neprilysin. As to the kind of experiment: Inhibitory activity against endopeptidase enzyme (NEP).
For the next test, the target named is T4, Peptide deformylase (Escherichia coli, UniProt Q9JN24).
T4 sequence (Q9JN24 whole entry): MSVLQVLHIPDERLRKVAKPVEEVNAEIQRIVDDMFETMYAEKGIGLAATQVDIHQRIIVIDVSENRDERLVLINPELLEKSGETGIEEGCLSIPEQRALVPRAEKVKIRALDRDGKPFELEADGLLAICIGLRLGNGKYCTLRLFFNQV
As to the kind of experiment: Inhibitory activity against isolated Escherichia coli peptidyl deformylase (PDF) enzyme containing iron.

In ChEMBL document CHEMBL1133694, “Hydroxamic acid derivatives as potent peptide deformylase inhibitors and antibacterial agents” (J Med Chem, 2000) one finds MIC and IC50 data, which are given here for three compounds.

As a reminder, the IC50 is the point on the concentration scale where inhibition reaches its midpoint.

Each structure is given as a SMILES string. ≈ marks a conversion by molar mass, not a printed value. Some results are limits rather than exact numbers.

Sequence of Macrophage metalloelastase (P39900 whole entry): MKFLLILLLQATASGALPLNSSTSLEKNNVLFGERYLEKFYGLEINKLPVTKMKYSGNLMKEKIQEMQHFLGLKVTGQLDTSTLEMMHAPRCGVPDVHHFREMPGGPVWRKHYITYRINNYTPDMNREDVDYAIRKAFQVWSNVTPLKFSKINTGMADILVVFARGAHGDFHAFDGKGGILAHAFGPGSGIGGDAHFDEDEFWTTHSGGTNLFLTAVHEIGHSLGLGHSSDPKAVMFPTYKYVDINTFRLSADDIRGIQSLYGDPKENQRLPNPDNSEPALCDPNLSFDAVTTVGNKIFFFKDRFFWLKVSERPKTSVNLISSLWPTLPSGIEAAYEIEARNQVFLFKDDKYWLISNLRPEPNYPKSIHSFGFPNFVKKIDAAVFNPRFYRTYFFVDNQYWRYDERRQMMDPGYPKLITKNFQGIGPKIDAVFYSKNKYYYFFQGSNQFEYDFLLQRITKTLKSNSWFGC
Sequence of Angiotensin-converting enzyme (P12821 whole entry): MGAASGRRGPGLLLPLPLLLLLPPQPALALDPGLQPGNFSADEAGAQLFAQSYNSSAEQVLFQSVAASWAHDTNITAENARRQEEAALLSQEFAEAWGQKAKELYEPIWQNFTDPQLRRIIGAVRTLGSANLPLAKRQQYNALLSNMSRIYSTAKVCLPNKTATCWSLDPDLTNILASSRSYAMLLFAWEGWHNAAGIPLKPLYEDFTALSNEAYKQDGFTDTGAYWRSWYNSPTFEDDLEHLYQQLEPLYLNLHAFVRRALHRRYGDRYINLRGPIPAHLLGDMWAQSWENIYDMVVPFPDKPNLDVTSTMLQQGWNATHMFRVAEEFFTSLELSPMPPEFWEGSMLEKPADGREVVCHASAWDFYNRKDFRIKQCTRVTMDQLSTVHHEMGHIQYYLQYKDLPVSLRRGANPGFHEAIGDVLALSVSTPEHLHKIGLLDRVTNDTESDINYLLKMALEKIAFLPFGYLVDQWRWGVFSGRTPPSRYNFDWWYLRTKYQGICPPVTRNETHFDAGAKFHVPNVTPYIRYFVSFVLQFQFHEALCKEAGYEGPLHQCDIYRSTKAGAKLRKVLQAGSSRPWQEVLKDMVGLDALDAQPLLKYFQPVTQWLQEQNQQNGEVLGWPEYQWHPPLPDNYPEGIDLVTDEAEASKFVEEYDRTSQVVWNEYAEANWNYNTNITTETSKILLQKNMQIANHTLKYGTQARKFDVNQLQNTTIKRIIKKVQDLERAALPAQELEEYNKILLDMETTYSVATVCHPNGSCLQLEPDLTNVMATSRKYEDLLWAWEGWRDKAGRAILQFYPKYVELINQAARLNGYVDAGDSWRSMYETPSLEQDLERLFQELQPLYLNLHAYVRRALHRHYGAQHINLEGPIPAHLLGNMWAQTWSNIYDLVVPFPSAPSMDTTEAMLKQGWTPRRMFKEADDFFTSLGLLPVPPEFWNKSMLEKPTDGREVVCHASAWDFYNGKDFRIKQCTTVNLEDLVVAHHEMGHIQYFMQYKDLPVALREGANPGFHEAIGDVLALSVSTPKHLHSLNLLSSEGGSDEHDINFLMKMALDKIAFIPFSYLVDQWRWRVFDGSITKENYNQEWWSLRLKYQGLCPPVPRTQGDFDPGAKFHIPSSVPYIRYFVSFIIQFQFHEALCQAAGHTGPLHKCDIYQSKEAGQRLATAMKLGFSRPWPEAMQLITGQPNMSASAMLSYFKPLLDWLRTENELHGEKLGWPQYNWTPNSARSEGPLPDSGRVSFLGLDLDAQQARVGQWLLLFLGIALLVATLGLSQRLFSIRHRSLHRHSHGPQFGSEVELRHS
Sequence of Matrilysin (P09237 whole entry): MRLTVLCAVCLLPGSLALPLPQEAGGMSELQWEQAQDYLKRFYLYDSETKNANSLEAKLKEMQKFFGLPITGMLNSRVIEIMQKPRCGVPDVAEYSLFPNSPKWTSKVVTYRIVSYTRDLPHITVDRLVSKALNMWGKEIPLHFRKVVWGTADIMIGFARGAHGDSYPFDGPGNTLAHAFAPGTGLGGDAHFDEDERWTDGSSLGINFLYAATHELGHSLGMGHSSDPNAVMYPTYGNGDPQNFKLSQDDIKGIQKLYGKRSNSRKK

For `CCCCC(CC(=O)NO)S(=O)(=O)c1ccccc1` (stereo unspecified), the MIC is 1 µg/mL (≈ 3.5 µM) against Bacillus subtilis; 0.5 µg/mL (≈ 1.75 µM) against Chlamydia pneumoniae; 128 µg/mL (≈ 449 µM) against Escherichia coli [1]; above 128 µg/mL with Enterococcus faecalis; 8 µg/mL (≈ 28 µM) with Escherichia coli [2]; above 128 µg/mL against Enterococcus faecium. The MIC is 4 µg/mL (≈ 14 µM) against Haemophilus influenzae; below 0.25 µg/mL in the test with Moraxella catarrhalis; 1 µg/mL (≈ 3.5 µM) in test [5]; above 128 µg/mL with Pseudomonas aeruginosa; 256 µg/mL (≈ 897 µM) against Staphylococcus aureus; 128 µg/mL (≈ 449 µM) with Streptococcus pneumoniae [8]. In addition, the MIC in test [9] came out at 4 µg/mL (≈ 14 µM); against Streptococcus pneumoniae [10], 128 µg/mL (≈ 449 µM). The IC50 in test [3] was above 50 µM; against Collagenase 3, 22 nM; against Interstitial collagenase, 110 nM; in test [4], 12 nM; against Neprilysin [6] it was 18 µM; in test [7], 96 nM. In addition, the IC50 came out at 81 µM in [11] and 340 nM in [12].

Turning to `CCCCC(CC(=O)NO)S(=O)(=O)C1CCCCC1` (stereo unspecified), the MIC in the test on Escherichia coli [2] was 8 µg/mL (≈ 27.5 µM); in the test on Moraxella catarrhalis it was below 0.25 µg/mL. Moreover, the IC50 in [3] is 78 µM; against Matrilysin, 290 nM; against Collagenase 3, 100 nM; on Interstitial collagenase it was 54 nM; in test [4], 14 nM; against Neprilysin [6], 1.65 µM. Also, in test [11], the IC50 is above 100 µM.

For the compound `CCCCC(CC(=O)NO)S(=O)(=O)c1ccc2ccccc2c1` (stereo unspecified), the MIC in the test with Escherichia coli [2] was found to be 8 µg/mL (≈ 23.9 µM); with Moraxella catarrhalis it was 0.5 µg/mL (≈ 1.49 µM). Moreover, the IC50 in [3] was 450 µM; on Matrilysin it was 1500 nM; against Collagenase 3 it was 9 nM; on Interstitial collagenase, 70 nM; in test [4] it was 13 nM; on Neprilysin [13], 500 nM. Further, the results for the IC50 (against Peptide deformylase; in [11]) were 23 nM and 12.4 µM, respectively.
